Reference: ChEMBL document CHEMBL1201862, “PubChem BioAssay data set” (2004)
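Following 48 hours of exposure in 96-well plates, responses at five concentrations were used to interpolate endpoints linearly. At the GI50, growth is halved.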 The source made the active and inactive calls. No stated cut-off is given here; in the data, active = GI50 up to about 1.1 µM and inactive = higher.

Tests used:
Assay in all cases: NCI tumour cell line growth inhibition, 48 h
[1] = system: UACC-257
[2] = system: HCC 2998
[3] = system: RPMI-8226
[4] = system: SK-MEL-5
[5] = system: Malme-3M
[6] = system: HOP-62
[7] = system: IGROV-1
[8] = system: EKVX
[9] = system: OVCAR-4
[10] = system: UO-31
[11] = system: MCF7
[12] = system: K562
[13] = system: ACHN
[14] = system: NCI-H23
[15] = system: NCI-H522
[16] = system: HOP-92
[17] = system: M14
[18] = system: CAKI-1
[19] = system: OVCAR-5
[20] = system: OVCAR-8

Measured: GI50

COc1cc(OC(=O)c2ccccc2)cc2c1C(=O)C=CC2=O
inactive: [1] 16.2 µM | [2] 4.58 µM | [3] 2.93 µM | [4] 16 µM | [5] 15.3 µM | [6] 42.9 µM | [7] 15.1 µM | [8] 13.2 µM | [9] 5.4 µM | [10] 11.2 µM | [11] 11 µM | [12] 1.88 µM | [13] 12.8 µM | [14] 16.2 µM | [15] 5.31 µM | [16] 2.16 µM | [17] 14.4 µM | [18] 20.6 µM | [19] 32.7 µM | [20] 18.9 µM

N#Cc1c(-c2ccc([N+](=O)[O-])cc2)cc(-c2ccc(Nc3ccnc4cc(Cl)ccc34)cc2)[nH]c1=O
inactive: [2] > 100 µM | [3] > 100 µM | [5] > 100 µM | [6] 67.3 µM | [7] > 100 µM | [8] > 100 µM | [9] > 100 µM | [10] > 100 µM | [11] > 100 µM | [12] > 100 µM | [13] > 100 µM | [14] 93.3 µM | [15] > 100 µM | [16] > 100 µM | [17] > 100 µM | [18] > 100 µM | [19] > 100 µM | [20] > 100 µM

Clc1cc(Cl)nc(Nc2ccc3c(c2)CCC3)n1
inactive: [1] 42 µM | [2] 16.4 µM | [3] 16.5 µM | [4] 23.8 µM | [5] 28.6 µM | [7] 16 µM | [8] 20 µM | [9] 61.2 µM | [10] 41.4 µM | [11] 20.5 µM | [12] 20.6 µM | [13] 35.1 µM | [14] 39.6 µM | [15] 2.54 µM | [16] 32.8 µM | [17] 42.9 µM | [18] 28.2 µM | [19] 77.8 µM | [20] 72.3 µM

COc1ccc(/[N+]([O-])=C/c2ccc(OC(=S)S)c(OC)c2)cc1
inactive: [1] > 100 µM | [2] > 100 µM | [3] 30.3 µM | [4] 24.5 µM | [5] 62.7 µM | [6] 39.7 µM | [7] 39.3 µM | [8] 31.4 µM | [9] 17.4 µM | [10] 44.6 µM | [11] 5.58 µM | [12] 21.7 µM | [13] 75 µM | [14] 29.6 µM | [15] 25.8 µM | [16] 23.2 µM | [17] 46.8 µM | [18] 17 µM | [19] > 100 µM | [20] 38.5 µM

CC(=O)O[C@H]1CCc2c(cc(N)c3c2C(=O)C[C@]2(C)C([C@H](C)CCCC(C)C)CCC32C)C1(C)C (stereo not given in full)
inactive: [1] 85.7 µM | [2] > 100 µM | [3] > 100 µM | [4] > 100 µM | [5] > 100 µM | [6] > 100 µM | [7] > 100 µM | [8] > 100 µM | [9] 92.7 µM | [10] > 100 µM | [11] 57.9 µM | [12] 33.7 µM | [13] > 100 µM | [14] 60.5 µM | [15] > 100 µM | [16] > 100 µM | [17] > 100 µM | [18] > 100 µM | [19] > 100 µM | [20] 33.3 µM

CC1CC[C@]2(C(=O)O)CCC3(C)C(=C2[C@H]1C)C=CC1[C@@]2(C)CC[C@H](O)C(C)(C)C2CC[C@]13C (stereo not given in full)
inactive: [1] 45 µM | [2] 29.7 µM | [3] 12.2 µM | [4] 21.4 µM | [5] 26.6 µM | [6] 21.1 µM | [7] 27.9 µM | [8] 32.8 µM | [9] 30.1 µM | [11] 30 µM | [12] 14.7 µM | [13] 16.4 µM | [14] 24.9 µM | [15] 23.1 µM | [16] 18.7 µM | [17] 44.9 µM | [18] 22.8 µM | [19] 39.5 µM | [20] 27.7 µM

CC(C)=C[C@@H]1C[C@H](C)c2c(O)cc(C)c3c2C1=C(C)C(=O)C3=O [ELISABATIN A]
inactive: [1] 17.6 µM | [2] 21.8 µM | [3] 18.2 µM | [4] 13.6 µM | [5] 16 µM | [6] 17.4 µM | [7] 16.7 µM | [8] 14.3 µM | [9] 10.9 µM | [11] 22.8 µM | [12] 17.2 µM | [13] 17.6 µM | [14] 13.5 µM | [15] 15.3 µM | [16] 13.4 µM | [17] 14 µM | [18] 16.6 µM | [19] 24.7 µM | [20] 16.9 µM
